Test results as given in PubChem BioAssay (NCI).
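Protocol summary: plate cells (96-well), add compound at 5 concentrations, incubate 48 h, interpolate endpoints linearly. GI50 marks 50% less growth. TGI marks complete inhibition of growth.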

Key:
Test in all cases: NCI-60 cell line screen, 48 h
BT-549 breast = test system: BT-549 breast
COLO 205 colon = test system: COLO 205 colon
HCT-116 colon = test system: HCT-116 colon
SK-MEL-5 melanoma = test system: SK-MEL-5 melanoma
UACC-257 melanoma = test system: UACC-257 melanoma
LOX IMVI melanoma = test system: LOX IMVI melanoma
SF-268 CNS = test system: SF-268 CNS
SN12C renal = test system: SN12C renal

Structure (SMILES): CN(C)C/C=C/C(=O)Nc1ccc(C(=O)N[C@@]2(C)CCC[C@@H](Nc3ncc(Cl)c(-c4c[nH]c5ccccc45)n3)C2)nc1
- GI50 (BT-549 breast): 0.036 µM
- TGI (BT-549 breast): 0.155 µM
- GI50 (COLO 205 colon): 0.01 µM
- TGI (COLO 205 colon): 0.026 µM
- GI50 (HCT-116 colon): < 0.01 µM
- TGI (HCT-116 colon): 0.124 µM
- GI50 (SK-MEL-5 melanoma): 0.0221 µM
- TGI (SK-MEL-5 melanoma): 0.779 µM
- GI50 (UACC-257 melanoma): < 0.01 µM
- TGI (UACC-257 melanoma): 0.121 µM

Structure (SMILES): N/N=C\c1c2ccccc2c(=O)n2c1oc1ccccc12
- GI50 (BT-549 breast): 1.42 µM
- TGI (BT-549 breast): 17 µM
- GI50 (COLO 205 colon): 18.3 µM
- TGI (COLO 205 colon): 34.8 µM
- GI50 (LOX IMVI melanoma): 16.4 µM
- TGI (LOX IMVI melanoma): 29.9 µM
- GI50 (SF-268 CNS): 15.9 µM
- TGI (SF-268 CNS): 30.4 µM
- GI50 (SK-MEL-5 melanoma): 2.8 µM
- TGI (SK-MEL-5 melanoma): 8.34 µM
- GI50 (SN12C renal): 14.4 µM
- TGI (SN12C renal): 29.7 µM
- GI50 (UACC-257 melanoma): 17.3 µM
- TGI (UACC-257 melanoma): 39 µM

Structure (SMILES): NC(CSC(c1ccccc1)(c1ccccc1)c1ccccc1)C(=O)NCC(=O)O (stereo not given)
- GI50 (BT-549 breast): 10.1 µM
- TGI (BT-549 breast): > 100 µM
- GI50 (COLO 205 colon): 3.39 µM
- TGI (COLO 205 colon): > 100 µM
- GI50 (HCT-116 colon): 3.97 µM
- TGI (HCT-116 colon): > 100 µM
- GI50 (LOX IMVI melanoma): 7.66 µM
- TGI (LOX IMVI melanoma): > 100 µM
- GI50 (SF-268 CNS): 5.38 µM
- TGI (SF-268 CNS): > 100 µM
- GI50 (SK-MEL-5 melanoma): 3.4 µM
- TGI (SK-MEL-5 melanoma): 31.4 µM
- GI50 (SN12C renal): 4.05 µM
- TGI (SN12C renal): > 100 µM
- GI50 (UACC-257 melanoma): 5.19 µM
- TGI (UACC-257 melanoma): > 100 µM

Structure (SMILES): COC(=O)c1ccc2[nH]c(O)c(C(=Nc3ccc(N(C)C(=O)CN4CCN(C)CC4)cc3)c3ccc4c(c3)OCO4)c2c1
- GI50 (BT-549 breast): 1.06 µM
- TGI (BT-549 breast): 2.47 µM
- GI50 (COLO 205 colon): 0.369 µM
- TGI (COLO 205 colon): 1.74 µM
- GI50 (HCT-116 colon): 0.197 µM
- TGI (HCT-116 colon): 1.52 µM
- GI50 (LOX IMVI melanoma): 0.415 µM
- TGI (LOX IMVI melanoma): 1.9 µM
- GI50 (SF-268 CNS): 0.929 µM
- TGI (SF-268 CNS): 3.86 µM
- GI50 (SK-MEL-5 melanoma): 0.878 µM
- TGI (SK-MEL-5 melanoma): 2.17 µM
- GI50 (SN12C renal): 0.321 µM
- TGI (SN12C renal): 9.61 µM
- GI50 (UACC-257 melanoma): 2.27 µM
- TGI (UACC-257 melanoma): 6.77 µM

Structure (SMILES): Nc1ncc(-c2cnn(C3CCNCC3)c2)cc1-c1nc2cc(Cl)ccc2o1
- GI50 (BT-549 breast): 1.61 µM
- TGI (BT-549 breast): 3.14 µM
- GI50 (COLO 205 colon): 1.41 µM
- TGI (COLO 205 colon): 2.91 µM
- GI50 (HCT-116 colon): 0.851 µM
- TGI (HCT-116 colon): 2.13 µM
- GI50 (LOX IMVI melanoma): 1.55 µM
- TGI (LOX IMVI melanoma): 3.07 µM
- GI50 (SF-268 CNS): 1.38 µM
- TGI (SF-268 CNS): 2.8 µM
- GI50 (SK-MEL-5 melanoma): 1.66 µM
- TGI (SK-MEL-5 melanoma): 3.08 µM
- GI50 (SN12C renal): 1.24 µM
- TGI (SN12C renal): 2.71 µM
- GI50 (UACC-257 melanoma): 1.29 µM
- TGI (UACC-257 melanoma): 2.59 µM

Structure (SMILES): [N-]=[N+]=NCCCn1c2c(c3ccc([N+](=O)[O-])cc3c1=O)C(=O)c1ccccc1-2
- GI50 (BT-549 breast): 27.4 µM
- TGI (BT-549 breast): > 100 µM
- GI50 (HCT-116 colon): 8.17 µM
- TGI (HCT-116 colon): > 100 µM
- GI50 (LOX IMVI melanoma): 8.66 µM
- TGI (LOX IMVI melanoma): > 100 µM
- GI50 (SF-268 CNS): 79.8 µM
- TGI (SF-268 CNS): > 100 µM
- GI50 (SK-MEL-5 melanoma): 2.39 µM
- TGI (SK-MEL-5 melanoma): 9.31 µM
- GI50 (SN12C renal): 72.5 µM
- TGI (SN12C renal): > 100 µM
- GI50 (UACC-257 melanoma): 0.244 µM
- TGI (UACC-257 melanoma): 56.8 µM

Structure (SMILES): C[C@]12CCc3sc(Nc4ccc(OC(F)(F)F)cc4)nc3C1=CC[C@@H]1[C@@H]2CC[C@]2(C)C(=O)CC[C@@H]12
- GI50 (BT-549 breast): 1.78 µM
- TGI (BT-549 breast): 7.42 µM
- GI50 (COLO 205 colon): 2.61 µM
- TGI (COLO 205 colon): 6.76 µM
- GI50 (LOX IMVI melanoma): 1.74 µM
- TGI (LOX IMVI melanoma): 3.18 µM
- GI50 (SF-268 CNS): 3.01 µM
- TGI (SF-268 CNS): 12.3 µM
- GI50 (SK-MEL-5 melanoma): 2.62 µM
- TGI (SK-MEL-5 melanoma): 7.41 µM
- GI50 (SN12C renal): 3.44 µM
- TGI (SN12C renal): 16.1 µM
- GI50 (UACC-257 melanoma): 4.89 µM
- TGI (UACC-257 melanoma): 28.8 µM
